Data: the NIST ThermoML archive (doi:10.1016/j.jct.2011.11.005)
Values joined by “and” are separate entries in the source; they are usually repeats but may differ in a detail not shown here. Equal entries are not always repeated. Numbers after ± are expanded uncertainties.

How the values were obtained:
[1] = activity coefficient (dimensionless); of the first substance listed, at infinite dilution; xn = mol fraction of the nth substance listed; conditions: 101.3 kPa, Liquid, x1 = 0
[2] = 101.33 kPa, Liquid, Vibrating tube method
[3] = 313 K, Open tubular Wall-Coated Column Chromatography
[4] = 333 K, Open tubular Wall-Coated Column Chromatography
[5] = 353 K, Open tubular Wall-Coated Column Chromatography
[6] = 373 K, Open tubular Wall-Coated Column Chromatography
[7] = 393 K, Open tubular Wall-Coated Column Chromatography
[8] = 413 K, Open tubular Wall-Coated Column Chromatography
[9] = 313 K, open tubular wall-coated column chromatography
[10] = 333 K, open tubular wall-coated column chromatography
[11] = 353 K, open tubular wall-coated column chromatography
[12] = 373 K, open tubular wall-coated column chromatography
[13] = 383 K, open tubular wall-coated column chromatography
[14] = 393 K, open tubular wall-coated column chromatography
[15] = 403 K, open tubular wall-coated column chromatography
[16] = 413 K, open tubular wall-coated column chromatography

In the case of `CC(C)O` [propan-2-ol] + CC(=O)[O-].CCn1cc[n+](C)c1, the activity coefficient [1, 3] is reported as 0.08 ± 0.01, the activity coefficient [1, 4] is reported as 0.11 ± 0.01 and the activity coefficient [1, 5] is reported as 0.13 ± 0.01. The activity coefficient [1, 6] was 0.15 ± 0.02, the activity coefficient [1, 7] was 0.16 ± 0.02 and the activity coefficient [1, 8] was 0.19 ± 0.02.

With `CCCCCC` [hexane] + CC(=O)[O-].CCn1cc[n+](C)c1 the activity coefficient ([1]; 313 K, Chromatography) was 86.4 and 90.5, the activity coefficient [1, 9] was 86.5 ± 8.7 and the activity coefficient ([1]; 333 K, Chromatography) was 82.4 and 80.7. For the same compound, the activity coefficient [1, 10] was 80 ± 8, the activity coefficient ([1]; 353 K, Chromatography) was 65.9 and 71.3 and the activity coefficient [1, 11] was 70.6 ± 7.1. The activity coefficient ([1]; 373 K, Chromatography) was 66.1 and 72.7, the activity coefficient ([1]; 393 K, Chromatography) was 58.8 and 55.3 and the activity coefficient ([1]; 413 K, Chromatography) was 91.2 and 66.5.

Compound `CCCCCCC` [heptane] + CC(=O)[O-].CCn1cc[n+](C)c1 has an activity coefficient [1, 3] of 121 ± 12, an activity coefficient [1, 4] of 146 ± 15 and an activity coefficient [1, 5] of 157 ± 16. The activity coefficient [1, 6] was 173 ± 17.

Work on `CC(C)(C)O` [2-methylpropan-2-ol] + CC(=O)[O-].CCn1cc[n+](C)c1 yielded an activity coefficient [1, 3] of 0.16 ± 0.02, an activity coefficient [1, 4] of 0.18 ± 0.02 and an activity coefficient [1, 5] of 0.22 ± 0.02. The activity coefficient [1, 6] was 0.27 ± 0.03, the activity coefficient [1, 7] was 0.3 ± 0.03 and the activity coefficient [1, 8] was 0.37 ± 0.04.

`CC(=O)[O-].CCn1cc[n+](C)c1` [1-ethyl-3-methylimidazolium acetate] showed a mass density ([2]; 293.15 K) of 1100.87 ± 0.31 kg/m3, a mass density ([2]; 298.15 K) of 1097.83 ± 0.31 kg/m3 and a mass density ([2]; 303.15 K) of 1094.77 ± 0.31 kg/m3. It also gave a mass density ([2]; 308.15 K) of 1091.71 ± 0.3 kg/m3, a mass density ([2]; 313.15 K) of 1088.65 ± 0.3 kg/m3 and a mass density ([2]; 318.15 K) of 1085.61 ± 0.3 kg/m3. It also gave a mass density ([2]; 323.15 K) of 1082.57 ± 0.3 kg/m3, a mass density ([2]; 328.15 K) of 1079.55 ± 0.29 kg/m3 and a mass density ([2]; 333.15 K) of 1076.54 ± 0.29 kg/m3. It also gave a mass density ([2]; 338.15 K) of 1073.54 ± 0.29 kg/m3, a mass density ([2]; 343.15 K) of 1070.55 ± 0.29 kg/m3 and a mass density ([2]; 348.15 K) of 1067.58 ± 0.28 kg/m3. The mass density ([2]; 353.15 K) was 1064.61 ± 0.28 kg/m3 and the mass density ([2]; 358.15 K) was 1061.65 ± 0.28 kg/m3.

With `Cc1ccccc1` [toluene] + CC(=O)[O-].CCn1cc[n+](C)c1 the activity coefficient [1, 9] was 5.01 ± 0.5, the activity coefficient [1, 10] was 5.41 ± 0.54 and the activity coefficient [1, 11] was 5.76 ± 0.58. The activity coefficient ([1]; 363 K, Chromatography) was 6.07 and 6.21, the activity coefficient ([1]; 363 K, open tubular wall-coated column chromatography) was 5.81 ± 0.58 and the activity coefficient ([1]; 373 K, Chromatography) was 6.08 and 5.92. For the same compound, the activity coefficient [1, 12] was 5.88 ± 0.59, the activity coefficient ([1]; 383 K, Chromatography) was 6.12 and 6.03 and the activity coefficient [1, 13] was 6.03 ± 0.6. The activity coefficient ([1]; 393 K, Chromatography) was 6.23 and 5.87, the activity coefficient [1, 14] was 6.13 ± 0.61 and the activity coefficient ([1]; 403 K, Chromatography) was 6.28 and 6.04. The activity coefficient [1, 15] was 6.47 ± 0.65, the activity coefficient ([1]; 413 K, Chromatography) was 7.11 and 6.37 and the activity coefficient [1, 16] was 6.55 ± 0.66.

`CCC(C)(C)O` [2-methylbutan-2-ol] + CC(=O)[O-].CCn1cc[n+](C)c1 showed an activity coefficient [1, 5] of 0.29 ± 0.03, an activity coefficient [1, 6] of 0.35 ± 0.04 and an activity coefficient [1, 7] of 0.42 ± 0.04. The activity coefficient [1, 8] was 0.49 ± 0.05.

In the case of `CC#N` [acetonitrile] + CC(=O)[O-].CCn1cc[n+](C)c1, the activity coefficient [1, 10] is reported as 0.76 ± 0.08, the activity coefficient [1, 11] is reported as 0.77 ± 0.08 and the activity coefficient ([1]; 373 K, Chromatography) is reported as 0.82 ± 0.05. For the same compound, the activity coefficient [1, 12] was 0.86 ± 0.09, the activity coefficient ([1]; 383 K, Chromatography) was 0.85 and 0.88 and the activity coefficient [1, 13] was 0.91 ± 0.09. The activity coefficient ([1]; 393 K, Chromatography) was 0.87 ± 0.06, the activity coefficient [1, 14] was 0.89 ± 0.09 and the activity coefficient [1, 15] was 1.21 ± 0.14.

With `COCCOC` [1,2-dimethoxyethane] + CC(=O)[O-].CCn1cc[n+](C)c1 the activity coefficient [1, 3] was 3.56 ± 0.36, the activity coefficient [1, 4] was 3.88 ± 0.39 and the activity coefficient [1, 5] was 4.11 ± 0.41. For the same compound, the activity coefficient [1, 6] was 4.51 ± 0.45 and the activity coefficient [1, 7] was 4.81 ± 0.48.

For `C=CCCCC` [hex-1-ene] + CC(=O)[O-].CCn1cc[n+](C)c1, the activity coefficient ([1]; 313 K, Chromatography) was 37.8 and 39, the activity coefficient [1, 9] was 36 ± 3.6 and the activity coefficient ([1]; 333 K, Chromatography) was 34.7 and 35.5. The activity coefficient [1, 10] was 35.1 ± 3.5, the activity coefficient ([1]; 353 K, Chromatography) was 31.3 and 34.8 and the activity coefficient ([1]; 373 K, Chromatography) was 31 and 33.4. For the same compound, the activity coefficient ([1]; 393 K, Chromatography) was 30.6 and 30.1 and the activity coefficient ([1]; 413 K, Chromatography) was 25 and 27.

Work on `CCCO` [propan-1-ol] + CC(=O)[O-].CCn1cc[n+](C)c1 yielded an activity coefficient [1, 3] of 0.06 ± 0.01, an activity coefficient [1, 4] of 0.07 ± 0.01 and an activity coefficient [1, 5] of 0.09 ± 0.01. It also gave an activity coefficient [1, 6] of 0.1 ± 0.01, an activity coefficient [1, 7] of 0.11 ± 0.01 and an activity coefficient [1, 8] of 0.13 ± 0.01.

For `C[N+](=O)[O-]` [nitromethane] + CC(=O)[O-].CCn1cc[n+](C)c1, the activity coefficient [1, 5] was 0.44 ± 0.04, the activity coefficient [1, 6] was 0.46 ± 0.05 and the activity coefficient [1, 7] was 0.46 ± 0.05.

In the case of `C1COCCO1` [1,4-dioxane] + CC(=O)[O-].CCn1cc[n+](C)c1, the activity coefficient [1, 10] is reported as 2.29 ± 0.23, the activity coefficient [1, 11] is reported as 2.28 ± 0.23 and the activity coefficient ([1]; 373 K, Chromatography) is reported as 2.56 and 2.43. For the same compound, the activity coefficient [1, 12] was 2.39 ± 0.24, the activity coefficient ([1]; 393 K, Chromatography) was 2.63 and 2.32 and the activity coefficient [1, 14] was 2.52 ± 0.25. The activity coefficient ([1]; 403 K, Chromatography) was 2.75 and 2.44, the activity coefficient [1, 15] was 2.67 ± 0.27 and the activity coefficient ([1]; 413 K, Chromatography) was 2.77 and 2.46. For the same compound, the activity coefficient [1, 16] was 2.58 ± 0.26.

In the case of `CCOC(C)=O` [ethyl acetate] + CC(=O)[O-].CCn1cc[n+](C)c1, the activity coefficient [1, 9] is reported as 4.41 ± 0.44, the activity coefficient ([1]; 333 K, Chromatography) is reported as 5.41 and 4.67 and the activity coefficient [1, 10] is reported as 4.77 ± 0.48. For the same compound, the activity coefficient ([1]; 353 K, Chromatography) was 5.48 and 4.72, the activity coefficient [1, 11] was 5.24 ± 0.53 and the activity coefficient ([1]; 373 K, Chromatography) was 5.24 and 4.67. For the same compound, the activity coefficient [1, 12] was 5.62 ± 0.56, the activity coefficient ([1]; 393 K, Chromatography) was 5.29 and 4.76 and the activity coefficient [1, 14] was 5.35 ± 0.54. The activity coefficient ([1]; 403 K, Chromatography) was 5.47 and 5.05, the activity coefficient [1, 15] was 5.32 ± 0.53 and the activity coefficient ([1]; 413 K, Chromatography) was 5.44 and 5.11.

In the case of `C1CCOC1` [tetrahydrofuran] + CC(=O)[O-].CCn1cc[n+](C)c1, the activity coefficient [1, 9] is reported as 3.22 ± 0.32, the activity coefficient ([1]; 333 K, Chromatography) is reported as 3.91 and 3.36 and the activity coefficient [1, 10] is reported as 3.49 ± 0.35. The activity coefficient ([1]; 353 K, Chromatography) was 3.92 and 3.37, the activity coefficient [1, 11] was 3.63 ± 0.36 and the activity coefficient ([1]; 373 K, Chromatography) was 3.68 and 3.5. For the same compound, the activity coefficient [1, 12] was 3.67 ± 0.37, the activity coefficient [1, 13] was 3.94 ± 0.4 and the activity coefficient ([1]; 393 K, Chromatography) was 3.88 and 3.35. The activity coefficient [1, 14] was 4.02 ± 0.4, the activity coefficient ([1]; 403 K, Chromatography) was 4.02 and 3.55 and the activity coefficient [1, 15] was 4 ± 0.4. The activity coefficient ([1]; 413 K, Chromatography) was 4.13 and 3.9.

With `c1ccccc1` [benzene] + CC(=O)[O-].CCn1cc[n+](C)c1 the activity coefficient [1, 9] was 2.8 ± 0.28, the activity coefficient [1, 10] was 3.06 ± 0.31 and the activity coefficient ([1]; 353 K, Chromatography) was 3.41 and 3.39. The activity coefficient [1, 11] was 3.43 ± 0.34, the activity coefficient ([1]; 373 K, Chromatography) was 3.45 and 3.31 and the activity coefficient [1, 12] was 3.44 ± 0.34. For the same compound, the activity coefficient ([1]; 383 K, Chromatography) was 3.49 and 3.62, the activity coefficient [1, 13] was 3.49 ± 0.35 and the activity coefficient ([1]; 393 K, Chromatography) was 3.52 and 3.45. The activity coefficient [1, 14] was 3.68 ± 0.37, the activity coefficient ([1]; 403 K, Chromatography) was 4.15 and 3.67 and the activity coefficient [1, 15] was 3.91 ± 0.4. The activity coefficient ([1]; 413 K, Chromatography) was 4.1 and 4.11 and the activity coefficient [1, 16] was 4.28 ± 0.43.

With `C1CCCCC1` [cyclohexane] + CC(=O)[O-].CCn1cc[n+](C)c1 the activity coefficient ([1]; 313 K, Chromatography) was 36.2 and 35.5, the activity coefficient [1, 9] was 31.8 ± 3.2 and the activity coefficient ([1]; 333 K, Chromatography) was 30.9 and 31.6. The activity coefficient [1, 10] was 31.5 ± 3.2, the activity coefficient ([1]; 353 K, Chromatography) was 27.3 and 29.1 and the activity coefficient [1, 11] was 32.8 ± 3.3. For the same compound, the activity coefficient ([1]; 373 K, Chromatography) was 27.4 and 29.3, the activity coefficient ([1]; 383 K, Chromatography) was 26.9 and 25.6 and the activity coefficient ([1]; 393 K, Chromatography) was 26.5 and 28.9. The activity coefficient [1, 14] was 30.3 ± 3 and the activity coefficient ([1]; 413 K, Chromatography) was 24.8 and 24.3.
